Values quoted from earlier work as cited in patent US6001882A (priority 1997, dated 1999).

Experiments:
[1] = cited from earlier work
psoriasis = settings: systemic, with long wavelength ultraviolet light; cited from earlier work

Q: With `Cc1cc(O)c2c(=O)c3c(O)cc(O)c4c5c(O)cc(O)c6c(=O)c7c(O)cc(C)cc7c(c65)c(c2c1)c34` [protohypericin] as the compound, how does the “conversion on exposure to visible light” value [1] read?
A: converted to hypericin upon exposure to visible light

Q: With `C=Cc1c2[n-]c(c1C)/C=c1\[n-]/c(c(C)c1C=C)=C\c1[n-]c(c(CCC(=O)O)c1C)/C=c1\[n-]c(c(C)c1CCC(=O)O)=C2.[Sn+4]` [tin-protoporphyrin] as the compound, how does the amelioration of psoriasis (psoriasis) read?
A: effects amelioration of psoriasis in psoriatic patients
